Tests used:
Format in all cases: in vivo
[1] = test system: Echinochloa crus-galli var. formosensis; test: Test Example 1: herbicidal effect test by soil application in paddy rice; settings: Echinochloa crus-galli, soil, 336 h; 120 g active ingredient per 10 ares; applied immediately after sowing, flooded pots; 14 days after application; read-out: weed inhibition rate
Method in brief: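 Pre-emergence paddy soil application, 120 g a.i./10 a, emulsifiable concentrate diluted in water, applied by dropper right after sowing. Seeds (30/species) sown 0–1 cm in puddled, fertilized soil; flooded ~3 cm; glass greenhouse.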

Echinochloa crus-galli [2] = test: Test Example 4: herbicidal effect test by stem and leaf treatment in upland field; settings: Echinochloa crus-galli; 120 g per 10 ares; sprayed seven days after sowing, upland soil; 14 days after application; read-out: weed inhibition rate
[3] = test system: Echinochloa crus-galli var. formosensis; test: Test Example 6: herbicidal effect test by application during growth period of paddy rice (low dose); settings: Echinochloa crus-galli; 7.5 g per 10 ares; applied seven days after sowing, flooded pots; 14 days after application; read-out: weed inhibition rate
Procedure: (§1) The present test was conducted in duplicate for each chemical concentration group, and the weed inhibition rate (%) was determined 14 days after chemical application using the following formula (Math. 1). [formula]
(§2) Wagner pots with an area of […] were filled with paddy soil, followed by addition of water and incorporation of chemical fertilizer (N:P:K = 16:16:16), after which puddling was performed. After that, seeds of Echinochloa crus-galli var. formosensis, broad-leaved weeds (Monochoria vaginalis), and Scirpus juncoides were sown at a depth of 0 cm to 1 cm, 30 seeds each. Immediately after sowing, the pots were flooded and a water depth of approximately 3 cm was maintained. Subsequent management was conducted in a glass greenhouse. Seven days after sowing, an emulsifiable concentrate prepared according to Formulation Example 5 using the compound shown below was diluted with water, and a specified amount of the diluted solution was applied by dropper. The amount of the active ingredient to be applied was equivalent to 7.5 g per 10 ares. The test was conducted in duplicate for each chemical concentration group, and the herbicidal effect was evaluated 14 days after chemical application using the same criteria as in Test Example 1.

Echinochloa crus-galli [4] = test: Test Example 8: herbicidal effect test by stem and leaf treatment in upland field (low dose); settings: Echinochloa crus-galli; 7.5 g per 10 ares; sprayed seven days after sowing, upland soil; 14 days after application; read-out: weed inhibition rate
Procedure: as §1
(§3) Pots with an area of 36 cm^2 were filled with upland soil (alluvial loam), twenty seeds each of weeds of Digitaria ciliaris, and Echinochloa crus-galli were uniformly mixed with the top 1 cm layer of soil and the surface was lightly pressed down. Seven days after sowing, an emulsifiable concentrate prepared according to Formulation Example 5 using the compound shown below was diluted with water, and the diluted solution was sprayed onto the soil surface at a rate of 100 liters per 10 ares. The amount of the active ingredient to be applied was equivalent to 7.5 g per 10 ares. Fourteen days after chemical application, the herbicidal effect was evaluated according to the same criteria as in Test Example 1.

Digitaria ciliaris [5] = test: as above; settings: Digitaria ciliaris; 7.5 g per 10 ares; sprayed seven days after sowing, upland soil; 14 days after application; read-out: weed inhibition rate
Procedure: as §1, §3

[6] = test system: Echinochloa crus-galli var. formosensis; test: Test Example 2: herbicidal effect test by application during growth period of paddy rice; settings: Echinochloa crus-galli; 120 g per 10 ares; applied seven days after sowing, flooded pots; 14 days after application; read-out: weed inhibition rate
Method in brief: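 Weeds sown into puddled, flooded paddy soil received a post-emergence water application of emulsifiable concentrate at 120 g active ingredient per 10 ares, seven days after sowing. Herbicidal effect was rated 14 days later as inhibition (%).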

[7] = test system: Echinochloa crus-galli var. formosensis; test: Test Example 5: herbicidal effect test by soil application in paddy rice (low dose); settings: Echinochloa crus-galli, soil, 336 h; 7.5 g per 10 ares; applied immediately after sowing, flooded pots; 14 days after application; read-out: weed inhibition rate
Procedure: as §1
as §2, with “Immediately thereafter,” for “Seven days after sowing,”, “The test was conducted in duplicate for each chemical concentration group, and the herbicidal effect was evaluated 14 days after chemical application using the same criteria as in Test Example 1.” left out

Digitaria ciliaris [8] = test: Test Example 4: herbicidal effect test by stem and leaf treatment in upland field; settings: Digitaria ciliaris; 120 g per 10 ares; sprayed seven days after sowing, upland soil; 14 days after application; read-out: weed inhibition rate
Echinochloa crus-galli [9] = test: Test Example 7: herbicidal effect test by soil application in upland field (low dose); settings: Echinochloa crus-galli, 7.5 g per 10 ares, sprayed one day after sowing, 14 days after application, read-out: weed inhibition rate
Procedure: as §1
as §3, with “One day” for “Seven days”

Digitaria ciliaris [10] = test: as above; settings: Digitaria ciliaris, 7.5 g per 10 ares, sprayed one day after sowing, 14 days after application, read-out: weed inhibition rate
Procedure: as §1
as §3, with “One day” for “Seven days”

Echinochloa crus-galli [11] = test: Test Example 3: herbicidal effect test by soil application in upland field; settings: Echinochloa crus-galli, 120 g per 10 ares, sprayed one day after sowing, 14 days after application, read-out: weed inhibition rate
Method in brief: (§4)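 Weed inhibition (%) was assessed 14 days after treatment, in duplicate per concentration group. Seeds had been mixed into the upper 1 cm of upland alluvial loam, and the soil surface was sprayed one day later with the diluted emulsifiable concentrate at 120 g active ingredient per 10 ares.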

Digitaria ciliaris [12] = test: as above; settings: Digitaria ciliaris, 120 g per 10 ares, sprayed one day after sowing, 14 days after application, read-out: weed inhibition rate
Method in brief: as §4

COc1ccccc1CO[C@@H]1C[C@]2(C(C)C)O[C@@]1(C)C[C@@H]2Br [1-18, (1S,2R,4R,5S)-5-bromo-2-[(2-methoxyphenyl)methoxy]-1-methyl-4-isopropyl-7-oxabicyclo[2.2.1]heptane]
≥ 80%: pest or weed control at 1200 g/ha [1] | inhibition at 1200 g/ha (Echinochloa crus-galli [2]) | inhibition at 75 g/ha [3] | inhibition at 75 g/ha (Echinochloa crus-galli [4]) | inhibition at 75 g/ha (Digitaria ciliaris [5]) | inhibition at 1200 g/ha [6] | inhibition at 75 g/ha [7] | inhibition at 1200 g/ha (Digitaria ciliaris [8])

CCc1ccccc1CO[C@@H]1C[C@]2(C(C)C)O[C@@]1(C)C[C@@H]2Br [1-682, (1S,2R,4R,5S)-5-bromo-2-[(2-ethylphenyl)methoxy]-1-methyl-4-isopropyl-7-oxabicyclo[2.2.1]heptane]
≥ 80%: pest or weed control at 1200 g/ha [1] | inhibition at 1200 g/ha (Echinochloa crus-galli [2]) | inhibition at 75 g/ha (Echinochloa crus-galli [9]) | inhibition at 75 g/ha (Digitaria ciliaris [10]) | inhibition at 75 g/ha [3] | inhibition at 1200 g/ha (Echinochloa crus-galli [11]) | inhibition at 1200 g/ha (Digitaria ciliaris [12]) | inhibition at 75 g/ha (Echinochloa crus-galli [4]) | inhibition at 75 g/ha (Digitaria ciliaris [5]) | inhibition at 1200 g/ha [6] | inhibition at 75 g/ha [7] | inhibition at 1200 g/ha (Digitaria ciliaris [8])

COC(=O)c1ccccc1CO[C@@H]1C[C@]2(C(C)C)O[C@@]1(C)C[C@@H]2Br [1-709, methyl 2-[[(1S,2R,4R,5S)-5-bromo-1-methyl-4-isopropyl-7-oxabicyclo[2.2.1]heptan-2-yl]oxymethyl]benzoate]
≥ 80%: inhibition at 1200 g/ha (Echinochloa crus-galli [2]) | inhibition at 75 g/ha (Echinochloa crus-galli [4]) | inhibition at 75 g/ha (Digitaria ciliaris [5]) | inhibition at 1200 g/ha (Digitaria ciliaris [8])

CC(C)[C@]12C[C@@H](OCc3ccccn3)[C@](C)(C[C@@H]1Br)O2 [1-718, 2-[[(1S,2R,4R,5S)-5-bromo-1-methyl-4-isopropyl-7-oxabicyclo[2.2.1]heptan-2-yl]oxymethyl]pyridine]
≥ 80%: pest or weed control at 1200 g/ha [1] | inhibition at 1200 g/ha (Echinochloa crus-galli [2]) | inhibition at 75 g/ha (Echinochloa crus-galli [9]) | inhibition at 75 g/ha (Digitaria ciliaris [10]) | inhibition at 75 g/ha [3] | inhibition at 1200 g/ha (Echinochloa crus-galli [11]) | inhibition at 1200 g/ha (Digitaria ciliaris [12]) | inhibition at 75 g/ha (Echinochloa crus-galli [4]) | inhibition at 75 g/ha (Digitaria ciliaris [5]) | inhibition at 1200 g/ha [6] | inhibition at 75 g/ha [7] | inhibition at 1200 g/ha (Digitaria ciliaris [8])

Cc1ccccc1COC1CC2(C(C)C)OC1(C)CC2Br (centres unmarked) [1-1343, 5-bromo-1-methyl-2-[(2-methylphenyl)methoxy]-4-isopropyl-7-oxabicyclo[2.2.1]heptane]
≥ 80%: pest or weed control at 1200 g/ha [1] | inhibition at 1200 g/ha (Echinochloa crus-galli [2]) | inhibition at 75 g/ha (Echinochloa crus-galli [9]) | inhibition at 75 g/ha (Digitaria ciliaris [10]) | inhibition at 75 g/ha [3] | inhibition at 1200 g/ha (Echinochloa crus-galli [11]) | inhibition at 1200 g/ha (Digitaria ciliaris [12]) | inhibition at 75 g/ha (Echinochloa crus-galli [4]) | inhibition at 75 g/ha (Digitaria ciliaris [5]) | inhibition at 1200 g/ha [6] | inhibition at 75 g/ha [7] | inhibition at 1200 g/ha (Digitaria ciliaris [8])

COc1ccccc1COC1CC2(C(C)C)OC1(C)CC2Br (centres unmarked) [1-1349, 5-bromo-2-[(2-methoxyphenyl)methoxy]-1-methyl-4-isopropyl-7-oxabicyclo[2.2.1]heptane]
≥ 80%: pest or weed control at 1200 g/ha [1] | inhibition at 1200 g/ha (Echinochloa crus-galli [2]) | inhibition at 75 g/ha (Echinochloa crus-galli [9]) | inhibition at 75 g/ha (Digitaria ciliaris [10]) | inhibition at 75 g/ha [3] | inhibition at 1200 g/ha (Echinochloa crus-galli [11]) | inhibition at 1200 g/ha (Digitaria ciliaris [12]) | inhibition at 75 g/ha (Echinochloa crus-galli [4]) | inhibition at 75 g/ha (Digitaria ciliaris [5]) | inhibition at 1200 g/ha [6] | inhibition at 75 g/ha [7] | inhibition at 1200 g/ha (Digitaria ciliaris [8])

CC(C)C12CC(OCc3ccc(F)cc3)C(C)(CC1Br)O2 (centres unmarked) [1-1357, 5-bromo-2-[(4-fluorophenyl)methoxy]-1-methyl-4-isopropyl-7-oxabicyclo[2.2.1]heptane]
≥ 80%: pest or weed control at 1200 g/ha [1] | inhibition at 1200 g/ha (Echinochloa crus-galli [2]) | inhibition at 75 g/ha (Echinochloa crus-galli [9]) | inhibition at 75 g/ha (Digitaria ciliaris [10]) | inhibition at 75 g/ha [3] | inhibition at 1200 g/ha (Echinochloa crus-galli [11]) | inhibition at 1200 g/ha (Digitaria ciliaris [12]) | inhibition at 75 g/ha (Echinochloa crus-galli [4]) | inhibition at 75 g/ha (Digitaria ciliaris [5]) | inhibition at 1200 g/ha [6] | inhibition at 75 g/ha [7] | inhibition at 1200 g/ha (Digitaria ciliaris [8])

CC(C)C12CC(OCc3ccccc3Cl)C(C)(CC1Br)O2 (centres unmarked) [1-1358, 5-bromo-2-[(2-chlorophenyl)methoxy]-1-methyl-4-isopropyl-7-oxabicyclo[2.2.1]heptane]
≥ 80%: pest or weed control at 1200 g/ha [1] | inhibition at 1200 g/ha (Echinochloa crus-galli [2]) | inhibition at 75 g/ha (Echinochloa crus-galli [9]) | inhibition at 75 g/ha (Digitaria ciliaris [10]) | inhibition at 75 g/ha [3] | inhibition at 1200 g/ha (Echinochloa crus-galli [11]) | inhibition at 1200 g/ha (Digitaria ciliaris [12]) | inhibition at 75 g/ha (Echinochloa crus-galli [4]) | inhibition at 75 g/ha (Digitaria ciliaris [5]) | inhibition at 1200 g/ha [6] | inhibition at 75 g/ha [7] | inhibition at 1200 g/ha (Digitaria ciliaris [8])

CC(C)C12CC(OCc3ccccc3Br)C(C)(CC1Br)O2 (centres unmarked) [1-1361, 5-bromo-2-[(2-bromophenyl)methoxy]-1-methyl-4-isopropyl-7-oxabicyclo[2.2.1]heptane]
≥ 80%: pest or weed control at 1200 g/ha [1] | inhibition at 1200 g/ha (Echinochloa crus-galli [2]) | inhibition at 75 g/ha (Echinochloa crus-galli [9]) | inhibition at 75 g/ha (Digitaria ciliaris [10]) | inhibition at 75 g/ha [3] | inhibition at 1200 g/ha (Echinochloa crus-galli [11]) | inhibition at 1200 g/ha (Digitaria ciliaris [12]) | inhibition at 75 g/ha (Echinochloa crus-galli [4]) | inhibition at 75 g/ha (Digitaria ciliaris [5]) | inhibition at 1200 g/ha [6] | inhibition at 75 g/ha [7] | inhibition at 1200 g/ha (Digitaria ciliaris [8])

CC(C)C12CC(OCc3c(F)cccc3Br)C(C)(CC1Br)O2 (centres unmarked) [1-1598, 5-bromo-2-[(2-bromo-6-fluorophenyl)methoxy]-1-methyl-4-isopropyl-7-oxabicyclo[2.2.1]heptane]
≥ 80%: pest or weed control at 1200 g/ha [1] | inhibition at 1200 g/ha (Echinochloa crus-galli [2]) | inhibition at 75 g/ha (Echinochloa crus-galli [9]) | inhibition at 75 g/ha (Digitaria ciliaris [10]) | inhibition at 75 g/ha [3] | inhibition at 1200 g/ha (Echinochloa crus-galli [11]) | inhibition at 1200 g/ha (Digitaria ciliaris [12]) | inhibition at 75 g/ha (Echinochloa crus-galli [4]) | inhibition at 75 g/ha (Digitaria ciliaris [5]) | inhibition at 1200 g/ha [6] | inhibition at 75 g/ha [7]

— patent publication EP4707280A1, “1,4-CINEOLE DERIVATIVE AND INTERMEDIATE THEREOF, HERBICIDE CONTAINING SAID DERIVATIVE AS ACTIVE INGREDIENT, METHOD FOR USING HERBICIDE, AND METHOD FOR PREPARING AGROCHEMICAL COMPOSITION” (HOKKO CHEMICAL INDUSTRY CO., LTD., priority 2023, dated 2024)
